Measured values: patent US12679843B2, “Pyrrolopyrimidine amines as complement inhibitors” (BioCryst Pharmaceuticals, Inc., priority 2020, dated 2026)

Molecular target: Factor D (Homo sapiens, UniProt P00746)
Assay: Factor D esterolytic assay (Z-Lys-SBzl thioester substrate, DTNB, 405 nm)
Format: biochemical
Conditions: substrate Z-Lys-SBzl 1.29 mM, 100 mM HEPES, 500 mM NaCl, pH 7.5, 10% DMSO, tested a minimum of three times
In short: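 Human Factor D hydrolysis of Z-Lys-SBzl (1.29 mM) monitored at 405 nm via DTNB thiol detection for 600 s, 690 nm background subtracted. Buffer 100 mM HEPES, 500 mM NaCl, pH 7.5, 10% DMSO; substrate added immediately or after room-temperature preincubation. IC50 from percent inhibition of rate, at least three tests.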

Factor D, sequence (P00746 26-253): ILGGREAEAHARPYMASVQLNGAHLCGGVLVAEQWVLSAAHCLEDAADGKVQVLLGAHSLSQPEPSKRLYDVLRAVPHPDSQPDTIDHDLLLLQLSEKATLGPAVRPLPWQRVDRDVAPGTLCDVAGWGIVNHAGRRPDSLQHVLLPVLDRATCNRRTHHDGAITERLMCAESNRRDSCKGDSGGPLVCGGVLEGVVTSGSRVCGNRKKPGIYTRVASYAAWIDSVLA

Compared with `Cc1cccc2c1c1c(N)ncnc1n2CC(=O)N1[C@H](C(=O)Nc2cccc(Br)n2)C[C@@]2(C)C[C@@H]12` [Compound 176a, (1R,3S,5R)-2-(2-(4-amino-5-methyl-9H-pyrimido[4,5-b]indol-9-yl)acetyl)-N-(6-bromopyridin-2-yl)-5-methyl-2-azabicyclo[3.1.0]hexane-3-carboxamide], `C[C@@]12C[C@@H](C(=O)Nc3cccc(Br)n3)N(C(=O)Cn3c4ccc(O)cc4c4c(N)ncnc43)[C@@H]1C2` [Compound 164a, (1R,3S,5R)-2-(2-(4-amino-6-hydroxy-9H-pyrimido[4,5-b]indol-9-yl)acetyl)-N-(6-bromopyridin-2-yl)-5-methyl-2-azabicyclo[3.1.0]hexane-3-carboxamide] is lower in IC50: 100 to 1000 nM for the first, < 100 nM for the second.

`Nc1ncnc2c1c(-c1ccc3[nH]ccc3c1)cn2CC(=O)N1C[C@H](F)C[C@H]1C(=O)NCc1cccc(Cl)c1F` [Compound 139b, (2S,4R)-1-(2-(4-amino-5-(1H-indol-5-yl)-7H-pyrrolo[2,3-d]pyrimidin-7-yl)acetyl)-N-(3-chloro-2-fluorobenzyl)-4-fluoropyrrolidine-2-carboxamide] and `Nc1ncnc2c1c(-c1cccnc1)cn2CC(=O)N1C[C@H](F)C[C@H]1C(=O)NCc1cccc(Cl)c1F` [Compound 114f, (2S,4R)-1-(2-(4-amino-5-(pyridin-3-yl)-7H-pyrrolo[2,3-d]pyrimidin-7-yl)acetyl)-N-(3-chloro-2-fluorobenzyl)-4-fluoropyrrolidine-2-carboxamide] cannot be ordered by IC50: < 100 nM for the first, < 100 nM for the second.

`Cc1nc(C(F)(F)F)cc2c3c(N)ncnc3n(CC(=O)N3[C@H](C(=O)Nc4cncc(Br)n4)C[C@@]4(C)C[C@@H]34)c12` [Compound 350a, (1R,3S,5R)-2-(2-(4-amino-8-methyl-6-(trifluoromethyl)-9H-pyrido[4′,3′:4,5]pyrrolo[2,3-d]pyrimidin-9-yl)acetyl)-N-(6-bromopyrazin-2-yl)-5-methyl-2-azabicyclo[3.1.0]hexane-3-carboxamide] and `Cc1cc(C(F)(F)F)cc2c3c(N)ncnc3n(CC(=O)N3[C@H](C(=O)Nc4cccc(Cl)n4)C[C@@]4(C)C[C@@H]34)c12` [Compound 287a, (1R,3S,5R)-2-(2-(4-amino-8-methyl-6-(trifluoromethyl)-9H-pyrimido[4,5-b]indol-9-yl)acetyl)-N-(6-chloropyridin-2-yl)-5-methyl-2-azabicyclo[3.1.0]hexane-3-carboxamide] cannot be ordered by IC50: < 100 nM for the first, < 100 nM for the second.

`Cc1ncc(-c2cc(C)c3c(c2)c2c(N)ncnc2n3CC(=O)N2[C@H](C(=O)Nc3cccc(Br)n3)C[C@@]3(C)C[C@@H]23)cn1` [Compound 309a, (1R,3S,5R)-2-(2-(4-amino-8-methyl-6-(2-methylpyrimidin-5-yl)-9H-pyrimido[4,5-b]indol-9-yl)acetyl)-N-(6-bromopyridin-2-yl)-5-methyl-2-azabicyclo[3.1.0]hexane-3-carboxamide] and `Cc1ncc(-c2cc(C)c3c(c2)c2c(N)ncnc2n3CC(=O)N2[C@H](C(=O)Nc3cccc(Cl)n3)C[C@@]3(C)C[C@@H]23)cn1` [Compound 315a, (1R,3S,5R)-2-(2-(4-amino-8-methyl-6-(2-methylpyrimidin-5-yl)-9H-pyrimido[4,5-b]indol-9-yl)acetyl)-N-(6-chloropyridin-2-yl)-5-methyl-2-azabicyclo[3.1.0]hexane-3-carboxamide] cannot be ordered by IC50: < 100 nM for the first, < 100 nM for the second.

`C[C@@]12C[C@@H](C(=O)Nc3cccc(Br)n3)N(C(=O)Cn3c4ccc(C(=O)O)cc4c4c(N)ncnc43)[C@@H]1C2` [Compound 161a, 4-amino-9-(2-((1R,3S,5R)-3-((6-bromopyridin-2-yl)carbamoyl)-5-methyl-2-azabicyclo[3.1.0]hexan-2-yl)-2-oxoethyl)-9H-pyrimido[4,5-b]indole-6-carboxylic acid] and `COCc1ccc2c(c1)c1c(N)ncnc1n2CC(=O)N1[C@H](C(=O)Nc2cccc(Br)n2)C[C@@]2(C)C[C@@H]12` [Compound 340a, (1R,3S,5R)-2-(2-(4-amino-6-(methoxymethyl)-9H-pyrimido[4,5-b]indol-9-yl)acetyl)-N-(6-bromopyridin-2-yl)-5-methyl-2-azabicyclo[3.1.0]hexane-3-carboxamide] cannot be ordered by IC50: < 100 nM for the first, < 100 nM for the second.

`Nc1ncnc2c1c1ccccc1n2CC(=O)N1[C@@H]2C[C@@H]2C[C@H]1C(=O)Nc1cccc(Br)n1` [Compound 4b, (1R,3S,5R)-2-(2-(4-amino-9H-pyrimido[4,5-b]indol-9-yl)acetyl)-N-(6-bromopyridin-2-yl)-2-azabicyclo[3.1.0]hexane-3-carboxamide] and `Nc1ncnc2c1c1cc(-c3cccnc3)ccc1n2CC(=O)N1[C@@H]2C[C@@H]2C[C@H]1C(=O)Nc1cccc(Br)n1` [Compound 273c, (1R,3S,5R)-2-(2-(4-amino-6-(pyridin-3-yl)-9H-pyrimido[4,5-b]indol-9-yl)acetyl)-N-(6-bromopyridin-2-yl)-2-azabicyclo[3.1.0]hexane-3-carboxamide] cannot be ordered by IC50: < 100 nM for the first, < 100 nM for the second.

`Cc1cc2c(cc1Br)c1c(N)ncnc1n2CC(=O)N1[C@@H]2C[C@@H]2C[C@H]1C(=O)Nc1cccc(Br)n1` [Compound 379h, (1R,3S,5R)-2-(2-(4-amino-6-bromo-7-methyl-9H-pyrimido[4,5-b]indol-9-yl)acetyl)-N-(6-bromopyridin-2-yl)-2-azabicyclo[3.1.0]hexane-3-carboxamide] and `Cc1cc(C(F)(F)F)cc2c3c(N)ncnc3n(CC(=O)N3[C@@H]4C[C@@H]4C[C@H]3C(=O)Nc3cccc(Cl)n3)c12` [Compound 291a, (1R,3S,5R)-2-(2-(4-amino-8-methyl-6-(trifluoromethyl)-9H-pyrimido[4,5-b]indol-9-yl)acetyl)-N-(6-chloropyridin-2-yl)-2-azabicyclo[3.1.0]hexane-3-carboxamide] cannot be ordered by IC50: < 100 nM for the first, < 100 nM for the second.

First: Nc1c(C(=O)O)cnc2c1ccn2CC(=O)N1C[C@H](F)C[C@H]1C(=O)NCc1cccc(Cl)c1F [Compound 151a, 4-amino-1-(2-((2S,4R)-2-((3-chloro-2-fluorobenzyl)carbamoyl)-4-fluoropyrrolidin-1-yl)-2-oxoethyl)-1H-pyrrolo[2,3-b]pyridine-5-carboxylic acid]
Second: Cc1ccc2c(c1)c1c(N)ncnc1n2CC(=O)N1C[C@H](F)C[C@H]1C(=O)NCc1cccc(Cl)c1F [Compound 7b, (2S,4R)-1-(2-(4-amino-6-methyl-9H-pyrimido[4,5-b]indol-9-yl)acetyl)-N-(3-chloro-2-fluorobenzyl)-4-fluoropyrrolidine-2-carboxamide]
The IC50 of the first is higher: 100 to 1000 nM for the first, < 100 nM for the second.

`Cc1cc(C(F)(F)F)cc2c3c(N)ncnc3n(CC(=O)N3C[C@](C)(F)C[C@H]3C(=O)Nc3cccc(Cl)n3)c12` [Compound 320c, (2S,4R)-1-(2-(4-amino-8-methyl-6-(trifluoromethyl)-9H-pyrimido[4,5-b]indol-9-yl)acetyl)-N-(6-chloropyridin-2-yl)-4-fluoro-4-methylpyrrolidine-2-carboxamide] and `Cc1ncc(-c2cc(C)c3c(c2)c2c(N)ncnc2n3CC(=O)N2C[C@](C)(F)C[C@H]2C(=O)Nc2cccc(Cl)n2)cn1` [Compound 343a, (2S,4R)-1-(2-(4-amino-8-methyl-6-(2-methylpyrimidin-5-yl)-9H-pyrimido[4,5-b]indol-9-yl)acetyl)-N-(6-chloropyridin-2-yl)-4-fluoro-4-methylpyrrolidine-2-carboxamide] cannot be ordered by IC50: < 100 nM for the first, < 100 nM for the second.

`Cc1cc(C(F)(F)F)cc2c3c(N)ncnc3n(CC(=O)N3[C@@H]4C[C@@H]4C[C@H]3C(=O)Nc3cncc(Cl)n3)c12` [Compound 326c, (1R,3S,5R)-2-(2-(4-amino-8-methyl-6-(trifluoromethyl)-9H-pyrimido[4,5-b]indol-9-yl)acetyl)-N-(6-chloropyrazin-2-yl)-2-azabicyclo[3.1.0]hexane-3-carboxamide] and `Cc1cc(C)c2c(c1)c1c(N)ncnc1n2CC(=O)N1[C@H](C(=O)Nc2cccc(Br)n2)C[C@@]2(C)C[C@@H]12` [Compound 191a, (1R,3S,5R)-2-(2-(4-amino-6,8-dimethyl-9H-pyrimido[4,5-b]indol-9-yl)acetyl)-N-(6-bromopyridin-2-yl)-5-methyl-2-azabicyclo[3.1.0]hexane-3-carboxamide] cannot be ordered by IC50: < 100 nM for the first, < 100 nM for the second.

First: Nc1c(C(=O)O)cnc2c1ccn2CC(=O)N1[C@@H]2C[C@@H]2C[C@H]1C(=O)Nc1cccc(Br)n1 [Compound 155f, 4-amino-1-(2-((1R,3S,5R)-3-((6-bromopyridin-2-yl)carbamoyl)-2-azabicyclo[3.1.0]hexan-2-yl)-2-oxoethyl)-1H-pyrrolo[2,3-b]pyridine-5-carboxylic acid]
Second: Nc1ncnc2c1cc1n2C(C(=O)N2[C@@H](C(=O)Nc3cccc(Br)n3)C[C@@H]3C[C@@H]32)Oc2ccccc2-1 (single isomer, unassigned) [Compound 293a]
The IC50 of the first is higher: > 1000 nM for the first, 100 to 1000 nM for the second.

`Cc1ncc(-c2cc(C)c3c(c2)c2c(N)ncnc2n3CC(=O)N2C[C@H](F)C[C@H]2C(=O)Nc2cccc(Br)n2)cn1` [Compound 312a, (2S,4R)-1-(2-(4-amino-8-methyl-6-(2-methylpyrimidin-5-yl)-9H-pyrimido[4,5-b]indol-9-yl)acetyl)-N-(6-bromopyridin-2-yl)-4-fluoropyrrolidine-2-carboxamide] and `Cc1cc(O)cc2c3c(N)ncnc3n(CC(=O)N3[C@H](C(=O)Nc4cccc(Br)n4)C[C@@]4(C)C[C@@H]34)c12` [Compound 265a, (1R,3S,5R)-2-(2-(4-amino-6-hydroxy-8-methyl-9H-pyrimido[4,5-b]indol-9-yl)acetyl)-N-(6-bromopyridin-2-yl)-5-methyl-2-azabicyclo[3.1.0]hexane-3-carboxamide] cannot be ordered by IC50: < 100 nM for the first, < 100 nM for the second.

`Nc1ncnc2c1cnn2CC(=O)N1CCC[C@H]1C(=O)NCc1cccc(Cl)c1F` [Compound 78a, (S)-1-(2-(4-amino-1H-pyrazolo[3,4-d]pyrimidin-1-yl)acetyl)-N-(3-chloro-2-fluorobenzyl)pyrrolidine-2-carboxamide] gave an IC50 of 100 to 1000 nM.
